Data from patent publication US6461841B2, “L-amino acid oxidase from Rhodococcus species” (Degussa AG, priority 2000, dated 2002).
Where two headings read alike, the source gives them in different places.

Assays:
[1] = biological target: T1, L-amino acid oxidase from Rhodococcus opacus (Rhodococcus opacus, UniProt Q8VPD4); assay: Substrate spectrum and stereospecificity of L-amino acid oxidase; format: biochemical; details: relative to 10 mM L-alanine
T1 construct: made in house; host or cells: Rhodococcus opacus DSM 43250, the natural producer; purified from crude cell extract, not recombinant
T1 sequence (Q8VPD4 46-534): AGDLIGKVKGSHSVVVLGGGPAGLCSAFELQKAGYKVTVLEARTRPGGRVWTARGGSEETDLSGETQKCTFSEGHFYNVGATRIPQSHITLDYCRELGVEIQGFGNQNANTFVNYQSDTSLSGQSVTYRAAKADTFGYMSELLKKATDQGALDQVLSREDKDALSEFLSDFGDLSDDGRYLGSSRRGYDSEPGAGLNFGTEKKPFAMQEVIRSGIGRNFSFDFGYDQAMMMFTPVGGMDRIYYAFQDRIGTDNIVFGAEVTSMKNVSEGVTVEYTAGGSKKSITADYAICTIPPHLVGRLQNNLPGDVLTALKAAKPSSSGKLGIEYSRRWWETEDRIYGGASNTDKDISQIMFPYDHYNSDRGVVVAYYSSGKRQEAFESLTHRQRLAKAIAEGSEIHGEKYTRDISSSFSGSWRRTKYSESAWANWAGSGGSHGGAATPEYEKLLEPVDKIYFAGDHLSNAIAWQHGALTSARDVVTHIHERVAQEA
Method: The transformation of a large number of natural and non-natural amino acids was investigated. The following test batch (1 mL) was used for this purpose: 10 mM enantiomer-pure amino acid (or 20 mM D,L-amino acid); 0.2 M TEA-HCl buffer, pH 7.6; 0.2 mg/mL odianisidine; 10 U/mL POX; L-amino acid oxidase solution in limiting amounts. The activity measurements were carried out by photometry at 436 nm and 30° C.
The stereospecificity of the L-amino acid oxidase was measured for several substrates (e.g. alanine, asparagine, glutamine, phenylalanine, methionine, leucine, ornithine, lysine, histidine), in that both the D-form and the L-form, as well as the racemate were used. In this connection, D-amino acids are not transformed in any case. The activities with the racemates were as high, for all the substrates, as for the pure L-amino acids in each instance. […] In the determination of the substrate spectrum, it is therefore also possible to use the D,L-form.
The measured activity values were indicated as relative values with reference to the activity with 10 mM L-alanine (Table 4). Weak activity was indicated with a + in the table.

[2] = biological target: T1, L-amino acid oxidase from Rhodococcus opacus; assay: biochemical
Method: To determine the kinetic constants, the reaction speed of oxidation was studied at different concentrations of amino acid and for different L-amino acids, under the following conditions (tests in microtiter plates):
0.2 M TEA-HCl buffer, pH 7.6; 0.2 mg/mL o-dianisidine; 25 U/mL POX; L-amino acid oxidase in limiting amounts; varying concentrations of the different L-amino acids. Activity measurement was conducted by photometry at 450 nm and 30° C.
The kinetic constants Vmax.

[3] = biological target: T1, L-amino acid oxidase from Rhodococcus opacus; assay: Transformation of D,L-amino acid with L-amino acid oxidase, HPLC analysis of L- and D-form; format: biochemical; details: for concentration of the D-form during the reaction: 7 mM D,L-amino acid
Method: […] The total volume of the batch was 1 mL. Samples (50 μL) were taken at regular intervals, and analyzed for the content of L- and D-phenylalanine, using HPLC. Directly after being taken, the samples were heated to 95° C. for 3 min, and then the precipitated protein was centrifuged off. 20 μL of the diluted top fraction were put into 180 μL 100 mM sodium borate buffer, pH 10.4, and mixed with 20 μL of a derivativization reagent (260 mM isobuturyl-L-cysteine (IBLC) and 170 mM ophthaldialdehyde (OPA) in 100 mM sodium borate buffer, pH 10.4).
Separation conditions of HPLC:
Column: RP-18, 250×4 mm, 5 Am, Kromasil (Phenomenex, Aschaffenburg, Germany)
Detection: fluorescence, Ex. 340 nm, Em. 440 nm
Flow agent A: 23 mM sodium acetate buffer; pH 6.5 adjusted with acetic acid
Flow agent B: acetonitrile:water (10:1.5)

[4] = 10 mM enantiomer-pure amino acid, pH 7.6, 30° C., 436 nm
[5] = marked #: used in racemic form (20 mM D,L-amino acid)
[6] = marked *: poor solubility, 100 μL top fraction of saturated L-amino acid solution per batch
[7] = 0.2 M TEA-HCl buffer, pH 7.6, 30° C., constant of the amino acid as substrate, read-out: Ki

Row | SMILES | Rel. activity (%) [1, 4] | further results
1 | N[C@@H](Cc1ccc(Cl)cc1)C(=O)O (racemic) [4-chlorophenylalanine] | 9% | –
2 | N[C@@H](Cc1ccc(F)cc1)C(=O)O (racemic) [4-fluorophenylalanine] | – | Rel. activity (%) [1, 5]: 25%
3 | N[C@@H](CCc1ccccc1)C(=O)O (racemic) [Homophenylalanine] | – | Rel. activity (%) ([1]; marked *#: racemic form, low concentration (top fraction of saturated solution)): 50%
4 | CCCC[C@H](N)C(=O)O (racemic) [Norleucine] | – | Rel. activity (%) [1, 5]: 73%
5 | COC[C@H](N)C(=O)O (racemic) [O-methyl serine] | – | Rel. activity (%) [1, 5]: 99%
6 | N[C@H](C(=O)O)C(O)c1ccccc1 (mixture of isomers) [β-Phenyl serine] | – | Rel. activity (%) [1, 5]: 8%
7 | NC1CCOC1=O (stereo not drawn) [2-amino-4-butyrolactone] | 66% | –
8 | CC(C)(C)CCC(N)C(=O)O (stereo not drawn) [2-amino-5,5-dimethyl hexanic acid] | 44% | –
9 | N[C@@H](Cc1ccccc1Cl)C(=O)O [2-chlorophenylalanine] | 24% | –
10 | NCC(N)C(=O)O (stereo not drawn) [2.3-diaminopropionic acid] | 71% | –
11 | NCCC(N)C(=O)O (stereo not drawn) [2.4-diaminobutyric acid] | 100% | –
12 | N[C@@H](Cc1cccc2ccccc12)C(=O)O [3-(1-naphthyl)alanine] | – | Rel. activity (%) [1, 6]: 109%
13 | Nc1ccc(C[C@H](N)C(=O)O)cc1 [4-aminophenylalanine] | 16% | –
14 | N[C@@H](Cc1ccc([N+](=O)[O-])cc1)C(=O)O [4-nitrophenylalanine] | – | Rel. activity (%) [1, 6]: 30%
15 | C[C@H](N)C(=O)O [Alanine, L-alanine] | 100% | –
16 | N=C(N)NCCC[C@H](N)C(=O)O [Arginine] | 70% | Ki [2]: 5.42 mM
17 | NC(=O)C[C@H](N)C(=O)O [Asparagine] | 97% | –
18 | NC(=O)NCCC[C@H](N)C(=O)O [Citrulline] | 74% | Ki [2, 7]: 20.6 mM

Row | SMILES | Rel. activity (%) [1, 4] | further results
19 | N[C@@H](CSSC[C@H](N)C(=O)O)C(=O)O [Cystine] | – | Rel. activity (%) [1, 6]: 104%
20 | CC(C)C[C@@H](N)C(=O)O [D-leucine] | – | concentration of the D-form during the reaction ([3]; 35 μg/mL enzyme, pH 7.6): remains constant; ee value ([3]; after a reaction time of 20 min): ≥ 99.2%
21 | N[C@H](Cc1ccccc1)C(=O)O [D-phenylalanine] | – | concentration of the D-form during the reaction ([3]; 35 μg/mL enzyme, pH 7.6): remains constant; ee value ([3]; after a reaction time of 30 min): ≥ 99.2%; ee value ([3]; after a reaction time of 180 min): ≥ 99.5%
22 | NC(=O)CC[C@H](N)C(=O)O [Glutamine] | 52% | –
23 | N[C@@H](Cc1c[nH]cn1)C(=O)O [Histidine] | 36% | –
24 | NC1CCSC1=O (stereo not drawn) [Homocysteine thiolactone] | 23% | –
25 | CC[C@H](C)[C@H](N)C(=O)O [Isoleucine] | 45% | –
26 | CC(C)C[C@H](N)C(=O)O [Leucine, L-leucine] | 68% | Ki [2, 7]: 5.69 mM; transformation of the L-form ([3]; 7 mM D,L-leucine, during the first 20 min): almost completely transformed
27 | NCCCC[C@H](N)C(=O)O [Lysine, L-lysine] | 55% | Ki [2]: 63.7 mM
28 | CSCC[C@H](N)C(=O)O [Methionine] | 72% | Ki [2]: 6.84 mM; Vmax (U/mg) ([2]; 0.2 M TEA-HCl buffer, pH 7.6, 30° C.): 6.43 U/mg
29 | CC(=O)NCCCC[C@H](N)C(=O)O [Nε-acetyllysine] | 46% | –
30 | NCCC[C@H](N)C(=O)O [Ornithine] | 117% | Ki [2]: 12.5 mM
31 | N[C@@H](Cc1ccccc1)C(=O)O [Phenylalanine, L-phenylalanine] | 53% | Ki [2, 7]: 5.29 mM; concentration in the course of the reaction ([3]; 7 mM D,L-phenylalanine, 35 μg/mL enzyme, pH 7.6, originally 3.5 mM): < 0.01 mM
32 | N[C@@H](CO)C(=O)O [Serine] | 72% | –
33 | N[C@@H](Cc1c[nH]c2ccccc12)C(=O)O [Tryptophan] | 12% | –
34 | N[C@@H](Cc1ccc(O)cc1)C(=O)O [Tyrosine] | – | Rel. activity (%) [1, 6]: 54%
35 | CC(C)[C@H](N)C(=O)O [Valine, L-valine] | 32% | –
